These results are taken from US7582789B2, “Ibandronate polymorph” (Hoffmann-La Roche Inc., priority 2005, dated 2009).

By solubility is commonly meant the dissolved amount per volume that the medium holds.

A short description of data set [1]: Solubility measurement of crystalline Ibandronate polymorphs in buffer solutions and water (titration). In kind it is physicochemical. The following applies: 25° C. How it is done:
The solubility of the individual crystalline Ibandronate polymorphs A and B was measured for various solutions. Approximately 10 g of the corresponding polymorph A or B were suspended in three different buffer solutions at pH 2, pH 4 (Titrisol-buffer, citrate/HCl), at pH 7 (methenamine buffer, HCl) or in water. The suspension was stirred for 24 hours at 25° C. and was kept additonally 24 hours without stirring at the same temperature. Solubility was calculated by titration according to the following method.
The residue was filtered, 2 ml of the filtrate taken, 5 ml of Titriplex III solution were added and diluted with water to 100 ml. 2 ml of this solution were added to approximately 0.1 ml of xylenol orange indicator and the pH was adjusted to 6.5 by adding small portions of methenamine buffer solution or 0.1 M hydrochloric acid. The solution is titrated immediately with Th-DCTA-xylenol orange complex until the color changes from yellow to reddish-violet. The endpoint is determined photometrically.

A short description of data set [2]: Relative thermodynamic stability of Ibandronate polymorphs. Conditions: polymorph A compared with polymorph B.

`CCCCCN(C)CCC(O)(P(=O)([O-])O)P(=O)(O)O.O.[Na+]` [Polymorph A, 3-(N-methyl-N-pentyl) amino-1-hydroxypropane-1,1-diphosphonic acid monosodium salt monohydrate]: the solubility came out at 280 mg/mL in data set [1] (pH 2 Titrisol-buffer (citrate/HCl), stirred 24 h + 24 h without stirring); 276 mg/mL in data set [1] (pH 4 Titrisol-buffer (citrate/HCl), stirred 24 h + 24 h without stirring); 292 mg/mL in data set [1] (pH 7 methenamine buffer/HCl, stirred 24 h + 24 h without stirring); 278 mg/mL in data set [1] (water, stirred 24 h + 24 h without stirring). Further, the “thermodynamic stability relative to the other polymorph” value in data set [2] was “thermodynamically more stable”.
As for `CCCCCN(C)CCC(O)(P(=O)([O-])O)P(=O)(O)O.O.[Na+]` [Polymorph B, 3-(N-methyl-N-pentyl) amino-1-hydroxypropane-1,1-diphosphonic acid monosodium salt monohydrate], the solubility in data set [1] (pH 2 Titrisol-buffer (citrate/HCl), under at least partial conversion to polymorph A) is 274 mg/mL; in data set [1] (pH 4 Titrisol-buffer (citrate/HCl), under at least partial conversion to polymorph A), 278 mg/mL; in data set [1] (pH 7 methenamine buffer/HCl, under at least partial conversion to polymorph A) it was 299 mg/mL; in data set [1] (water, under at least partial conversion to polymorph A, listed as Ibandronate polymorph B, monosodium salt monohydrate), “about 279 g/l”; in data set [1] (water, under at least partial conversion to polymorph A, monosodium salt monohydrate), 279 mg/mL.
